Measurements taken from ChEMBL document CHEMBL4007488, “Amphiphilic Indole Derivatives as Antimycobacterial Agents: Structure-Activity Relationships and Membrane Targeting Properties” (J Med Chem, 2017).
In brackets after ≈: the same amount, converted by molar mass. Activity calls are given as the source filed them. The rule behind the calls is not given here.

Experiments:
[1] = test system: Mycobacterium tuberculosis variant bovis; assay: Antimycobacterial activity against Mycobacterium bovis BCG ATCC 35734 up to 4 times MIC90 after 8 weeks; assay type: functional
[2] = test system: Mycobacterium tuberculosis variant bovis; assay: Antimycobacterial activity against Mycobacterium bovis BCG ATCC 35734 after 5 days by broth dilution method; assay type: functional; details: ATCC 35734, 120 h
[3] = test system: Mycobacterium tuberculosis variant bovis; assay: Antimycobacterial activity against Mycobacterium bovis BCG ATCC 35734 using middlebrook 7H9 broth media after 5 days by broth dilution method; assay type: functional; details: ATCC 35734, 120 h
[4] = test system: Mycobacterium tuberculosis variant bovis; assay: Antimycobacterial activity against Mycobacterium bovis BCG ATCC 35734 using middlebrook 7H9 broth media supplemented with 10 % fetal bovine serum after 5 days by broth dilution method; assay type: functional; details: ATCC 35734, 120 h
[5] = test system: Mycobacterium tuberculosis variant bovis; assay: Antimycobacterial activity against Mycobacterium bovis BCG ATCC 35734 assessed as growth inhibition at 10 uM after 5 days relative to control; assay type: functional; details: ATCC 35734, 120 h, read-out: GI
[6] = test system: Mycobacterium tuberculosis variant bovis; assay: Antimycobacterial activity against Mycobacterium bovis BCG ATCC 35734 assessed as membrane depolarization at 200 uM by DiOC2-based fluorescence assay relative to control; assay type: functional, Mycobacterium tuberculosis variant bovis BCG
[7] = test system: Mycobacterium tuberculosis variant bovis; assay: Antimycobacterial activity against Mycobacterium bovis BCG ATCC 35734 in presence of menaquinone; assay type: functional
[8] = test system: Mycobacterium tuberculosis variant bovis; assay: Antimycobacterial activity against Mycobacterium bovis BCG ATCC 35734 assessed as membrane depolarization at 12 uM by DiOC2-based fluorescence assay; assay type: functional; details: TDE = time-dependent effect
[9] = test system: Mycobacterium tuberculosis variant bovis; assay: Antimycobacterial activity against Mycobacterium bovis BCG ATCC 35734 assessed as increase in permeabilized cells at 12 uM by propidium iodide-staining based FACS analysis; assay type: functional, cell-based; details: TDE = time-dependent effect
[10] = test system: Mycobacterium tuberculosis variant bovis; assay: Bactericidal activity against Mycobacterium bovis BCG ATCC 35734 assessed as reduction in colony forming units measured on day 4 by time kill assay; assay type: functional; details: ATCC 35734, 96 h, read-out: MBC99.9
[11] = test system: Mycobacterium tuberculosis variant bovis; assay: Antimycobacterial activity against Mycobacterium bovis BCG ATCC 35734 assessed as membrane depolarization at 1.6 uM measured daily over 5 days of compound treatment by DiOC2-based fluorescence assay; assay type: functional
[12] = test system: Mycobacterium tuberculosis variant bovis; assay: Antimycobacterial activity against Mycobacterium bovis BCG ATCC 35734 assessed as increase in permeabilized cells at 1.6 uM measured daily over 5 days of compound treatment by propidium iodide-staining based FACS analysis; assay type: functional, cell-based
[13] = test system: Mycobacterium tuberculosis variant bovis; assay: Bactericidal activity against Mycobacterium bovis BCG ATCC 35734 assessed as reduction in colony forming units at 1.6 uM measured daily over 5 days of compound treatment by time kill assay; assay type: functional
[14] = test system: Mycobacterium tuberculosis variant bovis; assay: Bactericidal activity against Mycobacterium bovis BCG ATCC 35734 assessed as 1000 fold kill under low-oxygen tension conditions by time kill assay; assay type: functional, Mycobacterium tuberculosis variant bovis BCG
[15] = test system: Mycobacterium tuberculosis variant bovis; assay: Induction of cell envelope stress in iniBAC expressing Mycobacterium bovis BCG ATCC 35734 co-expressing RFP assessed as increase in iniBAC promoter gene activity at compound MIC50 after 24 hrs by fluorescence assay relative to control; assay type: functional, Mycobacterium tuberculosis variant bovis BCG
[16] = test system: Mycobacterium tuberculosis variant bovis; assay: Induction of cell envelope stress in clgR-pspA expressing Mycobacterium bovis BCG ATCC 35734 co-expressing RFP assessed as increase in clgR promoter gene activity at compound MIC50 after 24 hrs by fluorescence assay relative to control; assay type: functional, Mycobacterium tuberculosis variant bovis BCG

Row | SMILES | MIC50 [2] [µM] | MIC90 [2] [µM] | inhibition of growth at 10 µM [5] [%] | further results
1 | NNC(=O)c1ccncc1 |  |  |  | Activity [1]: inactive
2 | CCCCCCCCn1cc(CN2CCC3(CC2)OCCO3)c2ccc(OC)cc21 | 2 (≈ 0.829 µg/mL) | 4 (≈ 1.66 µg/mL) | 99 | MIC50 [3]: 2.1 µM (≈ 0.871 µg/mL); MIC50 [4]: 2.5 µM (≈ 1.04 µg/mL)
3 | N#CC(C#N)=NNc1cccc(Cl)c1 [CARBONYL CYANIDE M-CHLOROPHENYLHYDRAZONE] |  |  |  | Activity [6]: 90%
4 | CC(C)=CCC/C(C)=C/Cn1cc(C(=O)N2CCCCC2)c2cc(F)ccc21 | > 50 | > 50 | 99 | 
5 | CC(C)=CCC/C(C)=C/Cn1cc(CN2CCN(C)CC2)c2cc(F)ccc21 | 15 (≈ 5.75 µg/mL) | 23 (≈ 8.82 µg/mL) | 99 | 
6 | CCCCCCCCn1cc(CN2CCN(CC)CC2)c2cc(F)ccc21 | 13 (≈ 4.86 µg/mL) | 32 (≈ 12 µg/mL) | 99 | 
7 | CCCCn1cc(CN2CCCCCC2)c2c(F)cccc21 | 10 (≈ 3.02 µg/mL) | 23 (≈ 6.96 µg/mL) | 99 | 
8 | CCCCCCCCn1cc(CN2CCCCCC2)c2cccc(F)c21 | 5 (≈ 1.79 µg/mL) | 8 (≈ 2.87 µg/mL) | 99 | 
9 | CC(C)=CCC/C(C)=C/Cn1cc(CN2CCC(C)CC2)c2cc(F)ccc21 | 4 (≈ 1.53 µg/mL) | 6 (≈ 2.3 µg/mL) | 99 | 
10 | CCCN(CCC)Cc1cn(C/C=C(\C)CCC=C(C)C)c2ccc(F)cc12 | 18 (≈ 6.92 µg/mL) | 39 (≈ 15 µg/mL) | 99 | 
11 | CC(C)=CCC/C(C)=C/Cn1cc(CN2CCSCC2)c2cc(F)ccc21 | 15 (≈ 5.8 µg/mL) | 23 (≈ 8.89 µg/mL) | 99 | 
12 | CCCCCCCCn1cc(CN2CCC(C)CC2)c2ccc(F)cc21 | 4 (≈ 1.43 µg/mL) | 5 (≈ 1.79 µg/mL) | 99 | 
13 | CCCCCCCCn1cc(CN2CCC3(CC2)OCCO3)c2c(F)cccc21 | 3 (≈ 1.21 µg/mL) | 6 (≈ 2.42 µg/mL) | 99 | 
14 | CCCCCCCCn1cc(CN2CCCCCC2)c2cc(OC)ccc21 | 4 (≈ 1.48 µg/mL) | 5 (≈ 1.85 µg/mL) | 99 | 
15 | CCn1cc(CN2CCCCCC2)c2c(F)cccc21 | > 50 | > 50 | 99 | 
16 | CCCCCCCCn1cc(C(=O)N2CCCCCC2)c2cc(F)ccc21 | > 50 | > 50 | 99 | 
17 | CCCCCCCCn1cc(CN2CCCCC2)c2cc(F)ccc21 | 6 (≈ 2.07 µg/mL) | 11 (≈ 3.79 µg/mL) | 99 | 
18 | CCCCCCCCn1cc(CN2CCCCCC2)c2c(OC)cccc21 | 6 (≈ 2.22 µg/mL) | 11 (≈ 4.08 µg/mL) | 99 | 
19 | CCCCCCCCn1cc(CN2CCC3(CC2)OCCO3)c2cc(OC)ccc21 | 5 (≈ 2.07 µg/mL) | 9 (≈ 3.73 µg/mL) | 99 | 
20 | CCCCCCCCn1cc(CN2CCCCC2)c2cc(OC)ccc21 | 5 (≈ 1.78 µg/mL) | 7.5 to 8 (≈ 2.67 to 2.85 µg/mL) | 99 | 
21 | Fc1cccc2[nH]cc(CN3CCCCCC3)c12 | > 50 | > 50 | 99 | 
22 | CC(C)=CCC/C(C)=C/Cn1cc(CNC2CCCCCC2)c2cc(F)ccc21 | 45 (≈ 17.8 µg/mL) | 50 (≈ 19.8 µg/mL) | 99 | 

Row | SMILES | MIC50 [2] [µM] | MIC90 [2] [µM] | inhibition of growth at 10 µM [5] [%] | further results
23 | CCCCCCCCn1ccc2cc(F)ccc21 | > 50 | > 50 | 99 | 
24 | CCN1CCN(Cc2cn(C/C=C(\C)CCC=C(C)C)c3ccc(F)cc23)CC1 | 13 (≈ 5.17 µg/mL) | 25 (≈ 9.94 µg/mL) | 99 | 
25 | CCCCCCCCn1cc(CN2CCCCC2)c2cccc(OC)c21 | 8 (≈ 2.85 µg/mL) | 11 (≈ 3.92 µg/mL) | 99 | 
26 | CC(C)=CCC/C(C)=C/Cn1cc(CN2CCCCC2)c2cc(Br)ccc21 | 8 (≈ 3.44 µg/mL) | 10 (≈ 4.29 µg/mL) | 99 | 
27 | Fc1ccc2[nH]cc(CN3CCCCC3)c2c1 | > 50 | > 50 | 99 | 
28 | CCCCCCCCCCn1cc(CN2CCCCCC2)c2c(F)cccc21 | 10 (≈ 3.87 µg/mL) | 15 (≈ 5.8 µg/mL) | 99 | 
29 | CCCCN(CCCC)Cc1cn(C/C=C(\C)CCC=C(C)C)c2ccc(F)cc12 | 13 (≈ 5.36 µg/mL) | 25.5 (≈ 10.5 µg/mL) | 99 | 
30 | CCCCCCCCn1cc(CN2CCC3(CC2)OCCO3)c2c(OC)cccc21 | 6 (≈ 2.49 µg/mL) | 9 (≈ 3.73 µg/mL) | 99 | 
31 | CCCCCCCCn1cc(CN2CCSCC2)c2cc(F)ccc21 | 11 (≈ 3.99 µg/mL) | > 50 | 99 | 
32 | CCCCCCCCn1cc(CN2CCCCC2)c2c(F)cccc21 | 6 (≈ 2.07 µg/mL) | 11 (≈ 3.79 µg/mL) | 99 | 
33 | CCCCCCCCn1cc(CN2CCCCCC2)c2cccc(OC)c21 | 6 (≈ 2.22 µg/mL) | 10 (≈ 3.71 µg/mL) | 99 | 
34 | CCCCCCCCn1cc(CN(CC)CC)c2cc(F)ccc21 | 10 (≈ 3.33 µg/mL) | 36 (≈ 12 µg/mL) | 99 | 
35 | CCCCCCCCn1cc(CN2CCC3(CC2)OCCO3)c2cc(F)ccc21 | 3 (≈ 1.21 µg/mL) | 5 (≈ 2.01 µg/mL) | 99 | 
36 | CCCCCCCCn1cc(CN(CCCC)CCCC)c2cc(F)ccc21 | 11 (≈ 4.27 µg/mL) | > 50 | 99 | 
37 | N#CCCCn1cc(CN2CCCCC2)c2cc(F)ccc21 | > 50 | > 50 | 99 | 
38 | CCCCCCCCn1cc(CN2CCCCCC2)c2ccc(OC)cc21 | 4 (≈ 1.48 µg/mL) | 6 (≈ 2.22 µg/mL) | 99 | 
39 | CCCCCCCCn1cc(CN2CCC(C)CC2)c2cc(OC)ccc21 | 4 (≈ 1.48 µg/mL) | 6 (≈ 2.22 µg/mL) | 99 | 
40 | CCCCCCCCn1cc(CNCCC)c2cc(F)ccc21 | 10 (≈ 3.18 µg/mL) | 20 (≈ 6.37 µg/mL) | 99 | 
41 | CCCCCCCCn1cc(CNC23CC4CC(CC(C4)C2)C3)c2ccc(F)cc21 | 3 (≈ 1.23 µg/mL) | 5 (≈ 2.05 µg/mL) | 99 | 
42 | CC(C)=CCC/C(C)=C/Cn1cc(CN2CCOCC2)c2cc(F)ccc21 | 15.5 (≈ 5.74 µg/mL) | > 50 | 99 | 
43 | CCCCCCCCn1cc(CN2CCCCCC2)c2c(F)cccc21 | 2 (≈ 0.717 µg/mL) | 6 (≈ 2.15 µg/mL) | 99 | Activity [7]: Active; MIC50 [3]: 5 µM (≈ 1.79 µg/mL); MIC50 [4]: 4.5 µM (≈ 1.61 µg/mL); Activity [8]: Tde; Activity [9]: Tde; MBC [10]: 12 µM (≈ 4.3 µg/mL); Activity [11]: Active; Activity [12]: Active; Activity [13]: Active; WCC99.9 [14]: 12 to 24 µM; fold change (FC) [15]: 10; fold change (FC) [16]: 5; Activity [1]: Active
44 | CCCCCCCCn1cc(CN2CCC(C)CC2)c2c(F)cccc21 | 2 (≈ 0.717 µg/mL) | 5 (≈ 1.79 µg/mL) | 99 | 
